Assays:
[1] = system: colon flora; assay: Stability in the presence of colon flora (content in colon of rat); type: in vitro ADME, SD rat; settings: male, rat, pH 6.8
Description: A phosphate buffer solution with a pH of 7.0 was formulated, and then CO2 was introduced to the solution to adjust the pH to 6.8. Then, the content in colon of a male SD rat (body weight: 180-220 g) was placed in a water bath at 37° C., and added into the phosphate buffer solution with a pH of 6.8 as prepared above under the protection of N2 to a concentration of 20% (w/v). The buffer solution was kept in an oxygen-free environment. Then, the test Compound 17 was added to the buffer solution, and the solution was stirred uniformly.
Supernatant was analyzed with HPLC, where the amount of each ingredient was calculated by normalization.
Note: in the above table, “T14.148 (%)” represents the percentage of peak area of the material with a retention time of 14.148 min “T14.713 (%)” represents the percentage of peak area of the material with a retention time of 14.713 min. “T16.392 (%)” represents the percentage of peak area of the material with a retention time of 16.392 min. “T22.624 (%)” represents the percentage of peak area of the material with a retention time of 22.624 min.
(§1) Other typical example compounds were tested for stability according to the above method, and the test results are shown in Table 8 below.

[2] = Test on stability in mediums in vitro (buffer solutions with different pH, simulated intestinal fluid, simulated gastric fluid); type: physicochemical
Description: At 37° C., Compound 17 was incubated in different mediums (buffer solutions with different pH, a simulated intestinal fluid containing pancreatin, and simulated gastric fluid containing pepsin).
as §1

C[C@]12C=CC(=O)C=C1CC[C@@H]1[C@@H]2C(=O)C[C@@]2(C)[C@H]1CC[C@]2(O)C(=O)COC1(CO)O[C@H](CO)[C@@H](O[C@@H]2O[C@H](CO)[C@H](O)[C@H](O)[C@H]2O)[C@@H]1O (stereo partly drawn) [Compound 17, 17-hydroxyl-21-{[4-O-(β-D-galactopyranosyl)-D-fructofuranosyl]oxy}pregna-1,4-diene-3,11,20-trione]
Compound 17 (%) ([1]; SD, 0 h): 84.8% | T14.148 (%) (percentage of peak area of the material with a retention time of 14.148 min) ([1]; SD, 0 h): 13.5% | T22.624 (%) (percentage of peak area of the material with a retention time of 22.624 min) ([1]; SD, 0 h): 0.0% | Compound 17 (%) ([1]; SD, 1 h): 49.0% | T14.148 (%) (percentage of peak area of the material with a retention time of 14.148 min) ([1]; SD, 1 h): 42.5% | T22.624 (%) (percentage of peak area of the material with a retention time of 22.624 min) ([1]; SD, 1 h): 0.0% | Compound 17 (%) ([1]; SD, 2 h): 25.3% | T22.624 (%) (percentage of peak area of the material with a retention time of 22.624 min) ([1]; SD, 2 h): 0.0% | T22.624 (%) (percentage of peak area of the material with a retention time of 22.624 min) ([1]; SD, 3 h): 0.0% | Compound 17 (%) ([1]; SD, 20 h): 0.0% | T22.624 (%) (percentage of peak area of the material with a retention time of 22.624 min) ([1]; SD, 20 h): 7.8% | Prednisone (%) (released from Compound 17) ([1]; Sprague-Dawley (SD), 0 h): 1.7% | T14.713 (%) (percentage of peak area of the material with a retention time of 14.713 min) ([1]; Sprague-Dawley (SD), 0 h): 0.0% | T16.392 (%) (percentage of peak area of the material with a retention time of 16.392 min) ([1]; Sprague-Dawley (SD), 0 h): 0.0% | Prednisone (%) (released from Compound 17) ([1]; Sprague-Dawley (SD), 1 h): 8.1% | T14.713 (%) (percentage of peak area of the material with a retention time of 14.713 min) ([1]; Sprague-Dawley (SD), 1 h): 0.0% | T16.392 (%) (percentage of peak area of the material with a retention time of 16.392 min) ([1]; Sprague-Dawley (SD), 1 h): 0.0% | Prednisone (%) (released from Compound 17) ([1]; Sprague-Dawley (SD), 2 h): 14.7% | T14.148 (%) (percentage of peak area of the material with a retention time of 14.148 min) ([1]; Sprague-Dawley (SD), 2 h): 59.1% | T14.713 (%) (percentage of peak area of the material with a retention time of 14.713 min) ([1]; Sprague-Dawley (SD), 2 h): 0.0% | T16.392 (%) (percentage of peak area of the material with a retention time of 16.392 min) ([1]; Sprague-Dawley (SD), 2 h): 0.0% | Prednisone (%) (released from Compound 17) ([1]; Sprague-Dawley (SD), 3 h): 21.2% | T14.148 (%) (percentage of peak area of the material with a retention time of 14.148 min) ([1]; Sprague-Dawley (SD), 3 h): 65.5% | T14.713 (%) (percentage of peak area of the material with a retention time of 14.713 min) ([1]; Sprague-Dawley (SD), 3 h): 0.0% | T16.392 (%) (percentage of peak area of the material with a retention time of 16.392 min) ([1]; Sprague-Dawley (SD), 3 h): 0.0% | Prednisone (%) (released from Compound 17) ([1]; Sprague-Dawley (SD), 20 h): 39.7% | T14.148 (%) (percentage of peak area of the material with a retention time of 14.148 min) ([1]; Sprague-Dawley (SD), 20 h): 12.7% | T14.713 (%) (percentage of peak area of the material with a retention time of 14.713 min) ([1]; Sprague-Dawley (SD), 20 h): 19.2% | T16.392 (%) (percentage of peak area of the material with a retention time of 16.392 min) ([1]; Sprague-Dawley (SD), 20 h): 6.4% | Compound 17 (%) ([1]; Sprague-Dawley, 3 h): 11.3% | percentage of the compound degraded ([1]; Sprague-Dawley, 3 h): about 90% | Compound 17 (%) ([2]; Acetate buffer solution, pH 4.0, 37° C., 0 h): 99.6% | Compound 17 (%) ([2]; Acetate buffer solution, pH 4.0, 37° C., 0.5 h): 99.6% | Compound 17 (%) ([2]; Acetate buffer solution, pH 4.0, 37° C., 1 h): 99.5% | Compound 17 (%) ([2]; Acetate buffer solution, pH 4.0, 37° C., 1.5 h): 99.4% | Compound 17 (%) ([2]; Acetate buffer solution, pH 4.0, 37° C., 4 h): 99.2% | Compound 17 (%) ([2]; Acetate buffer solution, pH 4.0, 37° C., 20 h): 97.1% | Compound 17 (%) ([2]; Acetate buffer solution, pH 4.0, 37° C., 24 h): 96.5% | Compound 17 (%) ([2]; Hydrochloric acid solution, pH 1.2, 37° C., 0 h): 96.0% | Compound 17 (%) ([2]; Hydrochloric acid solution, pH 1.2, 37° C., 0.5 h): 47.1% | Compound 17 (%) ([2]; Hydrochloric acid solution, pH 1.2, 37° C., 1 h): 22.1% | Compound 17 (%) ([2]; Hydrochloric acid solution, pH 1.2, 37° C., 2 h): 4.5% | Compound 17 (%) ([2]; Hydrochloric acid solution, pH 1.2, 37° C., 3 h): 1.0% | Compound 17 (%) ([2]; Hydrochloric acid solution, pH 2.0, 37° C., 0 h): 99.7% | Compound 17 (%) ([2]; Hydrochloric acid solution, pH 2.0, 37° C., 0.5 h): 93.3% | Compound 17 (%) ([2]; Hydrochloric acid solution, pH 2.0, 37° C., 1 h): 86.5% | Compound 17 (%) ([2]; Hydrochloric acid solution, pH 2.0, 37° C., 1.5 h): 80.1% | Compound 17 (%) ([2]; Hydrochloric acid solution, pH 2.0, 37° C., 2 h): 74.6% | Compound 17 (%) ([2]; Hydrochloric acid solution, pH 2.0, 37° C., 3 h): 64.5% | Compound 17 (%) ([2]; Hydrochloric acid solution, pH 2.0, 37° C., 4 h): 55.3% | Compound 17 (%) ([2]; Hydrochloric acid solution, pH 2.0, 37° C., 8 h): 30.8% | Compound 17 (%) ([2]; Hydrochloric acid solution, pH 2.0, 37° C., 24 h): 2.5% | Compound 17 (%) ([2]; Phosphate buffer solution, pH 5.8, 37° C., 0 h): 99.5% | Compound 17 (%) ([2]; Phosphate buffer solution, pH 5.8, 37° C., 1 h): 97.3% | Compound 17 (%) ([2]; Phosphate buffer solution, pH 5.8, 37° C., 6 h): 99.4% | Compound 17 (%) ([2]; Phosphate buffer solution, pH 5.8, 37° C., 8 h): 99.5% | Compound 17 (%) ([2]; Phosphate buffer solution, pH 5.8, 37° C., 33 h): 99.3% | Compound 17 (%) ([2]; Phosphate buffer solution, pH 6.8, 37° C., 0 h): 97.3% | Compound 17 (%) ([2]; Phosphate buffer solution, pH 6.8, 37° C., 1 h): 97.5% | Compound 17 (%) ([2]; Phosphate buffer solution, pH 6.8, 37° C., 6 h): 99.0% | Compound 17 (%) ([2]; Phosphate buffer solution, pH 6.8, 37° C., 8 h): 99.0% | Compound 17 (%) ([2]; Phosphate buffer solution, pH 6.8, 37° C., 33 h): 97.6% | Compound 17 (%) ([2]; Phosphate buffer solution, pH 7.8, 37° C., 0 h): 97.5% | Compound 17 (%) ([2]; Phosphate buffer solution, pH 7.8, 37° C., 1 h): 97.6% | Compound 17 (%) ([2]; Phosphate buffer solution, pH 7.8, 37° C., 6 h): 97.6% | Compound 17 (%) ([2]; Phosphate buffer solution, pH 7.8, 37° C., 8 h): 97.6% | Compound 17 (%) ([2]; Phosphate buffer solution, pH 7.8, 37° C., 33 h): 97.7% | Compound 17 (%) ([2]; Simulated gastric fluid (containing pepsin) (pH 2.0), 37° C., 0 h): 97.0% | Compound 17 (%) ([2]; Simulated gastric fluid (containing pepsin) (pH 2.0), 37° C., 0.5 h): 53.6% | Compound 17 (%) ([2]; Simulated gastric fluid (containing pepsin) (pH 2.0), 37° C., 1 h): 28.9% | Compound 17 (%) ([2]; Simulated gastric fluid (containing pepsin) (pH 2.0), 37° C., 1.5 h): 15.6% | Compound 17 (%) ([2]; Simulated gastric fluid (containing pepsin) (pH 2.0), 37° C., 2 h): 7.0% | Compound 17 (%) ([2]; Simulated gastric fluid (containing pepsin) (pH 2.0), 37° C., 3 h): 2.1% | Compound 17 (%) ([2]; Simulated intestinal fluid (containing pancreatin) (pH 6.8), 37° C., 0 h): 97.6% | Compound 17 (%) ([2]; Simulated intestinal fluid (containing pancreatin) (pH 6.8), 37° C., 1 h): 97.4% | Compound 17 (%) ([2]; Simulated intestinal fluid (containing pancreatin) (pH 6.8), 37° C., 6 h): 97.7% | Compound 17 (%) ([2]; Simulated intestinal fluid (containing pancreatin) (pH 6.8), 37° C., 8 h): 97.7% | Compound 17 (%) ([2]; Simulated intestinal fluid (containing pancreatin) (pH 6.8), 37° C., 33 h): 96.2% | Compound 17 (%) ([2]; Water (pH 6.2), 37° C., 0 h): 97.6% | Compound 17 (%) ([2]; Water (pH 6.2), 37° C., 1 h): 97.6% | Compound 17 (%) ([2]; Water (pH 6.2), 37° C., 6 h): 97.6% | Compound 17 (%) ([2]; Water (pH 6.2), 37° C., 8 h): 98.2% | Compound 17 (%) ([2]; Water (pH 6.2), 37° C., 33 h): 98.0% | percentage of remaining Compound 17 ([2]; pH 2.0 or higher, within 1.5 hours, 37° C.): greater than 80%

From US11491232B2, “Lactuloside compounds and preparation and use thereof” (Fruithy Holdings Limited, priority 2017, dated 2022)
